Measured values published in patent publication US11999727B2 (Tango Therapeutics, Inc., priority 2020, dated 2024).

What was measured:
[1] = system: HAP1 MTAP-deleted cell line; test: Viability assay, MTAP-deleted cell line; type: cell-based; settings: Homo sapiens, HAP1, viability assay, MTAP-deleted cell line; read-out: HAP1 MTAP deleted viability
Source text: Table 1 additionally indicates IC50 values in a viability assay for the MTAP-deleted cell line (column 10), indicating the effect of treatment with compound on cell survival.

[2] = system: HAP1 MTAP-intact cell line; test: SDMA in-cell western assay, HAP1 MTAP-intact; type: cell-based; settings: Homo sapiens, HAP1, SDMA in-cell western, HAP1 MTAP-intact; read-out: MTAP HAP1 intact IC50
Outline: (§1)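 Readout: in-cell western detection of SDMA. Cells: HAP1 expressing endogenous MTAP and an MTAP-null HAP1 counterpart. Output: IC50.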

PRMT5 [3] = target: T1, PRMT5 (Homo sapiens, UniProt O14744); test: PRMT5 biochemical IC50 assay with SAM as cofactor; settings: PRMT5, SAM as cofactor; read-out: SAM IC50
T1 construct: purchased Viva (custom protein)
T1 sequence (O14744 whole entry): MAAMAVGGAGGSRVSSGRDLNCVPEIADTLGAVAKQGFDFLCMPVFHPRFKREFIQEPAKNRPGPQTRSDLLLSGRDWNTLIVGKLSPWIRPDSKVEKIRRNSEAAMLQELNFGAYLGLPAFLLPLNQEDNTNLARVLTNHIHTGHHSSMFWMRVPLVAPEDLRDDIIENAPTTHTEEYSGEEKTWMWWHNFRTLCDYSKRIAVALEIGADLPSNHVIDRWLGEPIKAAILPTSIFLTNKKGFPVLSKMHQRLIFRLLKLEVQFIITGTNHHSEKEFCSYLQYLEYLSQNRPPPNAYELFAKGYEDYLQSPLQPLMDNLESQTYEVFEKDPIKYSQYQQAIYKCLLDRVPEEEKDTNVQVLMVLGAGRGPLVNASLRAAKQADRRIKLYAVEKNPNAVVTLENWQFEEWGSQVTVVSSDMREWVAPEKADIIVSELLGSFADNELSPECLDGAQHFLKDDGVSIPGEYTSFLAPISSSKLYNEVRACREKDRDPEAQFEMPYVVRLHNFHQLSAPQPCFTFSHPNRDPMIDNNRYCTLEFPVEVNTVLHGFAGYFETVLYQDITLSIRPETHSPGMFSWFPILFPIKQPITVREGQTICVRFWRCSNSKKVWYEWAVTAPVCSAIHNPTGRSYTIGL
T1 sequence (Q9BQA1 whole entry partner): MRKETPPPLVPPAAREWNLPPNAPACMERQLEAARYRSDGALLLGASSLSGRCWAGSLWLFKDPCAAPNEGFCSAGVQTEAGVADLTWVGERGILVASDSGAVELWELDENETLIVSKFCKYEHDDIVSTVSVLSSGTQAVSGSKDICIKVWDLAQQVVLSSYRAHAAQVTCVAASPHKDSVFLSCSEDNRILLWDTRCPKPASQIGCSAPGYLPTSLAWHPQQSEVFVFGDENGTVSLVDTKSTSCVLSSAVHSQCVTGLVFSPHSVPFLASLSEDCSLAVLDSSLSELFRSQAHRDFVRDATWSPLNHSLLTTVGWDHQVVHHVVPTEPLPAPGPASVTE

PRMT5 [4] = target: T1, PRMT5; test: PRMT5 biochemical IC50 assay with no cofactor; settings: PRMT5, no cofactor; read-out: No Cofactor/rel IC50
Source text: Table 1 indicates IC50 values (μM) against PRMT5 for exemplary compounds in the presence of SAM as cofactor, with no cofactor, and with MTA as cofactor, respectively (columns 4-6). […] Ki values can be calculated from the IC50 values as described in the Examples section. As detailed in the Examples section, for the assay performed in the presence of SAM, IC50=Ki×1.5 (Ki=IC50/1.5).

[5] = system: HAP1 MTAP-deleted cell line; test: SDMA in-cell western assay, HAP1 MTAP-deleted; type: cell-based; settings: for IC50: Homo sapiens, HAP1, SDMA in-cell western, HAP1 MTAP-deleted, read-out: HAP1 MTAP deleted IC50; for MTAP intact/deleted ratio: IC50 ratio HAP1 MTAP-intact vs HAP1 MTAP-deleted, SDMA in-cell western
Outline: as §1

PRMT5 [6] = target: T1, PRMT5; test: PRMT5 biochemical IC50 assay with MTA as cofactor; settings: PRMT5, MTA as cofactor; read-out: MTA IC50

Row | SMILES | IC50 [2] [nM] | IC50 (PRMT5 [3]) [nM] | IC50 (PRMT5 [4]) [nM] | IC50 [5] [nM] | IC50 (PRMT5 [6]) [nM] | IC50 [1] [nM] | MTAP intact/deleted ratio [5]
1 | CCc1cc(NC(=O)C(=O)N2C[C@@H](C)CC[C@@H]2c2ccc3cn(C4CCN(C)CC4)nc3c2)cnc1N (racemic) [Compound 1096, N-(6-Amino-5-ethyl-3-pyridyl)-2-oxo-2-[rac-(2R,5S)-5-methyl-2-[2-(1-methyl-4-piperidyl)indazol-6-yl]-1-piperidyl]acetamide] | < 100 | < 50 | < 50 | < 100 | < 50 | < 1000 | A (an IC50 ratio greater than or equal to 10 fold)
2 | CCc1cc(NC(=O)C(=O)N2CC(C)CCC2c2ccc3sc(C4CCN(C)CC4C)nc3c2)cnc1N (racemic) [Compound 1098, N-(6-amino-5-ethyl-3-pyridyl)-2-oxo-2-[rac-(2R,5S)-5-methyl-2-[2-[rac-(3R,4S)-1,3-dimethyl-4-piperidyl]-1,3-benzothiazol-5-yl]-1-piperidyl]acetamide] | < 100 | < 50 | < 50 | < 100 | < 50 | < 1000 | B (an IC50 ratio greater than or equal to 3 fold but lower than 10 fold)
3 | CCc1cc(NC(=O)C(=O)N2C[C@@H](C)CC[C@@H]2c2ccc(N3CCN(C)C[C@@H]3C)nc2)cnc1N (racemic) [Compound 1099, N-(6-amino-5-ethyl-3-pyridyl)-2-[(2R,5S)-2-[6-[(2S)-2,4-dimethylpiperazin-1-yl]-3-pyridyl]-5-methyl-1-piperidyl]-2-oxo-acetamide] | 100 to 1000 | 50 to 500 | < 50 | < 100 | < 50 | < 1000 | A (an IC50 ratio greater than or equal to 10 fold)
4 | Cc1cc(NC(=O)C(=O)N2C[C@@H](C)CC[C@@H]2c2ccc3sc(-c4cnn(C)c4)nc3c2)cnc1N (racemic) [Compound 1104, rac-N-(6-amino-5-methylpyridin-3-yl)-2-((2R,5S)-5-methyl-2-(2-(1-methyl-1H-pyrazol-4-yl)benzo[d]thiazol-5-yl)piperidin-1-yl)-2-oxoacetamide] | < 100 | 50 to 500 | < 50 | < 100 | < 50 | < 1000 | B (an IC50 ratio greater than or equal to 3 fold but lower than 10 fold)
5 | Cc1cc(NC(=O)C(=O)N2C[C@H](C)CC[C@H]2c2ccc(N3CCN(C)CC3)cc2)cnc1N (racemic) [Compound 1105, rac-N-(6-Amino-5-methyl-3-pyridyl)-2-[(2R,5S)-5-methyl-2-[4-(4-methylpiperazin-1-yl)phenyl]-1-piperidyl]-2-oxo-acetamide] | 100 to 1000 | 50 to 500 | 50 to 500 | < 100 | 50 to 500 | < 1000 | A (an IC50 ratio greater than or equal to 10 fold)
6 | CCc1cc(NC(=O)C(=O)N2C[C@@H](C)CC[C@@H]2c2ccc3sc(C4CCN(C)C(=O)C4)nc3c2)cnc1N (mixture of isomers) [Compound 1110, N-(6-amino-5-ethylpyridin-3-yl)-2-((2R,5S)-5-methyl-2-(2-(1-methyl-2-oxopiperidin-4-yl)benzo[d]thiazol-5-yl)piperidin-1-yl)-2-oxoacetamide] | 100 to 1000 | 50 to 500 | < 50 | < 100 | < 50 | < 1000 | A (an IC50 ratio greater than or equal to 10 fold)
7 | Cc1cc(NC(=O)C(=O)N2C[C@@H](C)CC[C@@H]2c2ccc3sc([C@H]4CCN(C)C(C)(C)C4)nc3c2)cnc1C (racemic) [Compound 1113, N-(5,6-dimethyl-3-pyridyl)-2-oxo-2-[(2R,5S)-5-methyl-2-[2-[(4S)-1,2,2-trimethyl-4-piperidyl]-1,3-benzothiazol-5-yl]-1-piperidyl]acetamide] | 100 to 1000 | < 50 | < 50 | < 100 | < 50 | < 1000 | A (an IC50 ratio greater than or equal to 10 fold)

Now from value to molecule, other results behind:

Row | IC50 [2] [nM] | IC50 (PRMT5 [3]) [nM] | IC50 (PRMT5 [4]) [nM] | IC50 [5] [nM] | IC50 (PRMT5 [6]) [nM] | SMILES | IC50 [1] [nM] | MTAP intact/deleted ratio [5]
8 | 100 to 1000 | < 50 | < 50 | < 100 | < 50 | COc1ncc(NC(=O)C(=O)N2C[C@@H](C)CC[C@@H]2c2ccc3nn(C4CCN(C)CC4)cc3c2)cc1C(N)=O (racemic) [Compound 1115, 2-Methoxy-5-[[2-oxo-2-[rac-(2R,5S)-5-methyl-2-[2-(1-methyl-4-piperidyl)indazol-5-yl]-1-piperidyl]acetyl]amino]pyridine-3-carboxamide] | < 1000 | A (an IC50 ratio greater than or equal to 10 fold)
9 | < 100 | < 50 | < 50 | < 100 | < 50 | COc1ncc(NC(=O)C(=O)N2C[C@@H](C)CC[C@@H]2c2ccc3sc([C@@H]4CCN(C)C[C@H]4C)nc3c2)cc1C(N)=O (racemic) [Compound 1127, 2-methoxy-5-[[2-oxo-2-[rac-(2R,5S)-5-methyl-2-[2-[rac-(3S,4R)-1,3-dimethyl-4-piperidyl]-1,3-benzothiazol-5-yl]-1-piperidyl]acetyl]amino]pyridine-3-carboxamide] | < 1000 | A (an IC50 ratio greater than or equal to 10 fold)
10 | < 100 | < 50 | < 50 | < 100 | < 50 | CCc1cc(NC(=O)C(=O)N2CC(C)CCC2c2ccc3sc(C4CCN(C)CC4C)nc3c2)cnc1N (racemic) [Compound 1131, N-(6-amino-5-ethyl-3-pyridyl)-2-oxo-2-[rac-(2R,5S)-5-methyl-2-[2-[rac-(3R,4R)-1,3-dimethyl-4-piperidyl]-1,3-benzothiazol-5-yl]-1-piperidyl]acetamide] | < 1000 | B (an IC50 ratio greater than or equal to 3 fold but lower than 10 fold)
11 | < 100 | 50 to 500 | 50 to 500 | < 100 | 50 to 500 | CCc1cc(NC(=O)C(=O)N2C[C@@H](C)[C@@H](OC)C[C@@H]2c2cccc(OCCN(C)C)c2)cnc1N (racemic) [Compound 1139, N-(6-amino-5-ethyl-3-pyridyl)-2-oxo-2-[rac-(2R,4S,5R)-2-[3-[2-(dimethylamino)ethoxy]phenyl]-4-methoxy-5-methyl-1-piperidyl]acetamide] | < 1000 | B (an IC50 ratio greater than or equal to 3 fold but lower than 10 fold)
12 | < 100 | < 50 | < 50 | < 100 | < 50 | CCc1cc(NC(=O)C(=O)N2C[C@@H](C)CC[C@@H]2c2ccc3nn(C4CC(C)(C)N(C)C(C)(C)C4)cc3c2)cnc1N (racemic) [Compound 1140, N-(6-Amino-5-ethyl-3-pyridyl)-2-oxo-2-[rac-(2R,5S)-5-methyl-2-[2-(1,2,2,6,6-pentamethyl-4-piperidyl)indazol-5-yl]-1-piperidyl]acetamide] | < 1000 | A (an IC50 ratio greater than or equal to 10 fold)
